Reference: PMC6100082, “Pyridine-Ureas as Potential Anticancer Agents: Synthesis and In Vitro Biological Evaluation” (Molecules : A Journal of Synthetic Chemistry and Natural …, 2018)
Like-named read-outs stand apart in the source and are kept apart here.

Columns and labels:
Type in all cases: cell-based, human
TK-10 = test: NCI one-dose SRB assay (Renal Cancer); settings: for Growth Percent: TK-10, 1.00E-5 Molar
Procedure: (§1) The structures of all the newly prepared pyridine-ureas 8a–n were submitted to the National Cancer Institute (NCI) Developmental Therapeutic Program. Eight compounds 8b, 8d, 8e, 8i, 8j and 8l–n were selected to be examined for their in vitro growth inhibitory activity. The anticancer assays were carried out according to the protocol of the Drug Evaluation Branch, NCI, Bethesda. The selected pyridine-ureas were tested at one dose primary anticancer assay against a panel of approximately 58 cancer lines (concentration 10^−5 M). The tested human cancer cell lines emerged from nine different cancer subtypes: leukemia, colon, melanoma, ovarian, lung, CNS, renal, breast and prostate cancers. The sulforhodamine B (SRB) protein assay was adopted to estimate the cell viability and growth. The results were reported as mean-graph of the percentage growth of the treated cells, and presented as percentage growth inhibition (GI%) caused by the test compounds (Table 2).
(§2) The anticancer assays were performed in accordance with the protocol of the Drug Evaluation Branch, NCI, Bethesda. A 48 h drug exposure protocol was used and sulforhodamine B (SRB) protein assay was applied to estimate the cell viability and growth, as reported earlier.

SN12C = test: NCI one-dose SRB assay (Renal Cancer); settings: for Growth Percent: 1.00E-5 Molar
Procedure: as §1, §2

UO-31 = test: NCI one-dose SRB assay (Renal Cancer); settings: for Growth Percent: UO-31, 1.00E-5 Molar
Procedure: as §1, §2

RXF 393 = test: NCI one-dose SRB assay (Renal Cancer); settings: for Growth Percent: RXF 393, 1.00E-5 Molar
Procedure: as §1, §2

A498 = test: NCI one-dose SRB assay (Renal Cancer); settings: for Growth Percent: A498, 1.00E-5 Molar
Procedure: as §1, §2

786-0 = test: NCI one-dose SRB assay (Renal Cancer); settings: for Growth Percent: 786-0, 1.00E-5 Molar
Procedure: as §1, §2

[1] = tested on: breast cancer MCF-7 cell line; test: In vitro anti-proliferative activity, MTT assay; settings: MCF-7, MTT
Procedure: The in vitro anti-proliferative activity of the newly prepared pyridine-ureas 8a–n was examined against breast cancer MCF-7 cell line. The assay was carried out, as triplicates, utilizing the 3-(4,5-dimethylthiazol-2-yl)-2,5-diphenyltetrazolium bromide (MTT) colorimetric assay as described by T. Mosmann. Doxorubicin and Sorafenib were included in this assay as a reference drug.
MCF-7 (human breast cancer cell line) and WI-38 (human lung fibroblast cell line), were obtained from American Type Culture Collection (Manassas, VA, USA). The cells were propagated in DMEM and supplemented with 10% heat-inactivated FBS (Hyclone), 10 μg/mL of insulin (Manufacturer, Sigma, St. Louis, MO, USA), and 1% penicillin-streptomycin. MTT assay was utilized to examine the in vitro anti-proliferative activity of the newly prepared ureas following the reported procedures. […] The data presented are the mean of at least three separate experiments.

PC-3 = test: NCI one-dose SRB assay (Prostate); settings: for Growth Percent: PC-3, 1.00E-5 Molar
Procedure: as §1, §2

SF-539 = test: NCI one-dose SRB assay (CNS Cancer); settings: for Growth Percent: SF-539, 1.00E-5 Molar
Procedure: as §1, §2

SNB-19 = test: NCI one-dose SRB assay (CNS Cancer); settings: for Growth Percent: SNB-19, 1.00E-5 Molar
Procedure: as §1, §2

SF-268 = test: NCI one-dose SRB assay (CNS Cancer); settings: for Growth Percent: SF-268, 1.00E-5 Molar
Procedure: as §1, §2

U251 = test: NCI one-dose SRB assay (CNS Cancer); settings: for Growth Percent: U251, 1.00E-5 Molar
Procedure: as §1, §2

SF-295 = test: NCI one-dose SRB assay (CNS Cancer); settings: for Growth Percent: SF-295, 1.00E-5 Molar
Procedure: as §1, §2

SNB-75 = test: NCI one-dose SRB assay (CNS Cancer); settings: for Growth Percent: SNB-75, 1.00E-5 Molar
Procedure: as §1, §2

NCI 58 cell line panel = test: NCI one-dose SRB assay, whole panel / subpanel summary; settings: for Mean Growth Percent: One Dose Mean Graph, 1.00E-5 Molar
Procedure: as §1, §2

NCI/ADR-RES = test: NCI one-dose SRB assay (Ovarian Cancer); settings: for Growth Percent: 1.00E-5 Molar
Procedure: as §1, §2

OVCAR-8 = test: NCI one-dose SRB assay (Ovarian Cancer); settings: for Growth Percent: OVCAR-8, 1.00E-5 Molar
Procedure: as §1, §2

OVCAR-3 = test: NCI one-dose SRB assay (Ovarian Cancer); settings: for Growth Percent: OVCAR-3, 1.00E-5 Molar
Procedure: as §1, §2

IGROV1 = test: NCI one-dose SRB assay (Ovarian Cancer); settings: for Growth Percent: IGROV1, 1.00E-5 Molar
Procedure: as §1, §2

OVCAR-4 = test: NCI one-dose SRB assay (Ovarian Cancer); settings: for Growth Percent: OVCAR-4, 1.00E-5 Molar
Procedure: as §1, §2

OVCAR-5 = test: NCI one-dose SRB assay (Ovarian Cancer); settings: for Growth Percent: OVCAR-5, 1.00E-5 Molar
Procedure: as §1, §2

SK-OV-3 = test: NCI one-dose SRB assay (Ovarian Cancer); settings: for Growth Percent: SK-OV-3, 1.00E-5 Molar
Procedure: as §1, §2

[2] = Homo sapiens, 10 μM, read-out: Percentage growth inhibition (GI%)

## 1-(4-Chloro-4-(trifluoromethyl)cyclohexa-2,5-dien-1-yl)-3-(6-(3,4-dimethoxyphenyl)-2-methylpyridin-3-yl)urea [Compound 8l]
TK-10; TK-10, 10 μM
  Percentage growth inhibition (GI%): 12%
TK-10
  Growth Percent: 88.19%
SN12C; 10 μM
  Percentage growth inhibition (GI%): 22%
SN12C
  Growth Percent: 78.52%
UO-31; UO-31, 10 μM
  Percentage growth inhibition (GI%): 28%
UO-31
  Growth Percent: 72.37%
RXF 393; RXF 393, 10 μM
  Percentage growth inhibition (GI%): 28%
RXF 393
  Growth Percent: 72.65%
A498; A498, 10 μM
  Percentage growth inhibition (GI%): 43%
A498
  Growth Percent: 57.69%
786-0; 786-0, 10 μM
  Percentage growth inhibition (GI%): 25%
786-0
  Growth Percent: 75.10%
[1]; 48 h of incubation, read-out: IC50 48 h
  IC50: 7.03 ± 0.61 µM
[1]; 72 h of incubation, read-out: IC50 72 h
  IC50: 21.4 ± 2.03 µM
PC-3; PC-3, 10 μM
  Percentage growth inhibition (GI%): 67%
PC-3
  Growth Percent: 33.54%
SF-539; SF-539, 10 μM
  Percentage growth inhibition (GI%): 13%
SF-539
  Growth Percent: 87.81%
SNB-19; SNB-19, 10 μM
  Percentage growth inhibition (GI%): 22%
SNB-19
  Growth Percent: 78.75%
SF-268; SF-268, 10 μM
  Percentage growth inhibition (GI%): 25%
SF-268
  Growth Percent: 75.77%
U251; U251, 10 μM
  Percentage growth inhibition (GI%): 45%
U251
  Growth Percent: 55.26%
SF-295; SF-295, 10 μM
  Percentage growth inhibition (GI%): 29%
SF-295
  Growth Percent: 71.54%
SNB-75; SNB-75, 10 μM
  Percentage growth inhibition (GI%): 20%
SNB-75
  Growth Percent: 80.45%
NCI 58 cell line panel
  Mean Growth Percent: 68.99%
NCI/ADR-RES; 10 μM
  Percentage growth inhibition (GI%): 31%
NCI/ADR-RES
  Growth Percent: 69.67%
OVCAR-8; OVCAR-8, 10 μM
  Percentage growth inhibition (GI%): 19%
OVCAR-8
  Growth Percent: 81.32%
OVCAR-3; OVCAR-3, 10 μM
  Percentage growth inhibition (GI%): 43%
OVCAR-3
  Growth Percent: 57.00%
IGROV1; IGROV1, 10 μM
  Percentage growth inhibition (GI%): 17%
IGROV1
  Growth Percent: 83.06%
OVCAR-4; OVCAR-4, 10 μM
  Percentage growth inhibition (GI%): 25%
OVCAR-4
  Growth Percent: 75.13%
OVCAR-5; OVCAR-5, 10 μM
  Percentage growth inhibition (GI%): 15%
OVCAR-5
  Growth Percent: 85.15%
SK-OV-3; SK-OV-3, 10 μM
  Percentage growth inhibition (GI%): 16%
SK-OV-3
  Growth Percent: 84.22%

## COc1ccc(-c2ccc(NC(=O)Nc3cccc(C(F)(F)F)c3)c(C)n2)cc1 [Compound 8b, 1-(6-(4-Methoxyphenyl)-2-methylpyridin-3-yl)-3-(3-(trifluoromethyl)phenyl) Urea]
TK-10; Homo sapiens, TK-10, 10 μM, read-out: Percentage growth inhibition (GI%)
  inhibition at 10 µM: 24%
TK-10
  Growth Percent: 76.66%
SN12C
  Growth Percent: 67.99%
SN12C; [2]
  inhibition at 10 µM: 33%
UO-31; Homo sapiens, UO-31, 10 μM, read-out: Percentage growth inhibition (GI%)
  inhibition at 10 µM: 45%
UO-31
  Growth Percent: 55.08%
RXF 393; Homo sapiens, RXF 393, 10 μM, read-out: Percentage growth inhibition (GI%)
  inhibition at 10 µM: 15%
RXF 393
  Growth Percent: 85.91%
A498
  Growth Percent: 52.08%
A498; Homo sapiens, A498, 10 μM, read-out: Percentage growth inhibition (GI%)
  inhibition at 10 µM: 48%
786-0
  Growth Percent: 77.34%
786-0; Homo sapiens, 786-0, 10 μM, read-out: Percentage growth inhibition (GI%)
  inhibition at 10 µM: 23%
[1]; Homo sapiens, MCF7, 48 h, 48 h of incubation, read-out: IC50 48 h
  IC50: 5.66 ± 0.45 µM
[1]; Homo sapiens, MCF7, 72 h, 72 h of incubation, read-out: IC50 72 h
  IC50: 5.03 ± 0.29 µM
PC-3; Homo sapiens, PC-3, 10 μM, read-out: Percentage growth inhibition (GI%)
  inhibition at 10 µM: 76%
PC-3
  Growth Percent: 24.40%
SF-539; Homo sapiens, SF-539, 10 μM, read-out: Percentage growth inhibition (GI%)
  inhibition at 10 µM: 20%
SF-539
  Growth Percent: 80.84%
SNB-19; Homo sapiens, SNB-19, 10 μM, read-out: Percentage growth inhibition (GI%)
  inhibition at 10 µM: 33%
SNB-19
  Growth Percent: 67.81%
SF-268; Homo sapiens, SF-268, 10 μM, read-out: Percentage growth inhibition (GI%)
  inhibition at 10 µM: 26%
SF-268
  Growth Percent: 74.51%
U251; Homo sapiens, U-251, U251, 10 μM, read-out: Percentage growth inhibition (GI%)
  inhibition at 10 µM: 50%
U251
  Growth Percent: 50.16%
SF-295; Homo sapiens, SF-295, 10 μM, read-out: Percentage growth inhibition (GI%)
  inhibition at 10 µM: 53%
SF-295
  Growth Percent: 47.56%
SNB-75; Homo sapiens, SNB-75, 10 μM, read-out: Percentage growth inhibition (GI%)
  inhibition at 10 µM: 23%
SNB-75
  Growth Percent: 77.64%
NCI 58 cell line panel; Homo sapiens, 10 μM, one dose, read-out: mean inhibition (mean % growth inhibition over NCI 58 cell line panel)
  inhibition at 10 µM: 43%
NCI 58 cell line panel
  Mean Growth Percent: 57.47%
NCI/ADR-RES
  Growth Percent: 53.15%
NCI/ADR-RES; [2]
  inhibition at 10 µM: 47%
OVCAR-8; Homo sapiens, OVCAR-8, 10 μM, read-out: Percentage growth inhibition (GI%)
  inhibition at 10 µM: 39%
OVCAR-8
  Growth Percent: 61.89%
OVCAR-3; Homo sapiens, OVCAR-3, 10 μM, read-out: Percentage growth inhibition (GI%)
  inhibition at 10 µM: 59%
OVCAR-3
  Growth Percent: 41.93%
IGROV1; Homo sapiens, IGROV-1, IGROV1, 10 μM, read-out: Percentage growth inhibition (GI%)
  inhibition at 10 µM: < 10%
IGROV1
  Growth Percent: 91.33%
OVCAR-4; Homo sapiens, OVCAR-4, 10 μM, read-out: Percentage growth inhibition (GI%)
  inhibition at 10 µM: 58%
OVCAR-4
  Growth Percent: 42.94%
OVCAR-5; Homo sapiens, OVCAR-5, 10 μM, read-out: Percentage growth inhibition (GI%)
  inhibition at 10 µM: 17%
OVCAR-5
  Growth Percent: 83.05%
SK-OV-3; Homo sapiens, SK-OV-3, 10 μM, read-out: Percentage growth inhibition (GI%)
  inhibition at 10 µM: 18%
SK-OV-3
  Growth Percent: 82.08%
